Patent EP3108900B1, “PROTOTYPE SYSTEMS OF THERANOSTIC BIOMARKERS FOR IN VIVO MOLECULAR MANAGEMENT OF CANCER” (EPOS-Iasis Research and Development, Ltd, priority 2015, dated 2016)
Several values for one entry are separate records, joined by “and”; a condition that tells them apart may be missing. Equal values may be shown once. Read-outs that look alike come from different tables or passages of the source.

How the values were obtained:
[1] = tested on: colon cancer cells (SW480); assay: antiproliferative effect / cell viability; format: cell-based; details: control = no drug
Method: The antiproliferative effect of the following compounds A1F, B1F, C1F and D1F were tested on colon cancer cells (SW480). [drawing 94] [drawing 95]

SW620 cells = assay: label-free temporal and quantitative pharmacoproteomics; format: cell-based
Method: The following experiment was performed to uncover new biomarkers of therapeutic response to the anticancer efficacy of the natural product based theranostic systems of the present invention.
In this experiment, SW620 cells were seeded in T75 flasks in DMEM, 10% FBS and 1% Penicillin/Streptomycin (all from Gibco). The cells were allowed to attach overnight. The following day the medium was removed and fresh medium containing 0.04 mM of either γT (γ-tocotrienol) or DCE-γT (diluted in absolute ethanol; final concentration of ethanol in the medium was 0.1% v/v). For control untreated cells, equal amount of fresh medium (containing ethanol at 0.1% v/v final concentration) was added.
SW620 cells were harvested after 24, 36 and 48 hrs of incubation with γT or DCE-γT. Briefly, the medium was removed and the cells were rinsed three times with PBS (without Ca, Mg) (Gibco). Fresh PBS was added and the cells were scraped off the flasks and collected in tubes. Collected cells were centrifuged at 1000rpm (165g) for 3min and the supernatant was removed. The cell pellet was re-suspended in PBS and the centrifugation step was repeated. The supernatant was removed and the cells in minimal residual PBS were snap-freezed in liquid nitrogen. Once frozen the cells were stored in -80°C until the proteomics analysis.
In terms of data analysis, a threshold of relative protein abundance equal or greater than 1.5-fold increase or decrease was set.

[2] = target: T1, EGFR membrane tyrosine kinase receptor (Homo sapiens, UniProt P00533); assay: FRET assay in cells transfected with EGFR-Luc plasmid; format: cell-based; details: EGFR negative colon cancer cells transiently transfected with EGFR-Luc plasmid
T1 construct: expressed in transfected cells
Method: The fluorescent esters of the natural products disclosed herein can also be used as molecular probes for deciphering the interaction between the natural product and potential biomarkers in cancer cells. EGFR negative colon cancer cells were transiently transfected with a rationally designed EGFR-Luc plasmid and incubated with the DCE-γ-Tocotrienol ester. Bioluminescence of the Luciferase (donor) was assessed against the fluorescence signal of either the DCE-γ-Tocotrienol ester or the hydrolysis product (acceptor).

EGFR-Luc and Grb2-GFP = EGFR-Luc and Grb2-GFP (Homo sapiens, UniProt P00533); assay: BRET assay of EGFR-Luc and Grb2-GFP interaction; format: cell-based; details: interaction between EGFR-Luc and Grb2-GFP
[3] = in vivo biodistribution, quantitative fluorescence imaging
LoVo cells = assay: MTT colorimetric assay (antiproliferative efficacy); format: cell-based
[4] = SW620 cells, 0.04 mM, versus control untreated cells

For `C=CC(=O)Nc1cc2c(NCc3cccc4ccccc34)ncnc2cc1NC(=O)CCl` [C1F], which “viability of the cells with respect to the control” value (“viability of the cells” below) [1] is on record?
Its value is “reduce the viability of the cells”.

Which “decrease of protein level of histone H2B types” value (SW620 cells; [4]) does the source give for `CC(C)=CCC/C(C)=C/CC/C(C)=C/CC[C@]1(C)CCc2cc(O)c(C)c(C)c2O1` [γT, γ-tocotrienol, reference compound] here?
The value was 1.8 fold.

What about the “decrease of protein level of histone H3 types” value (SW620 cells; [4]) of the same compound?
The value was “at least 3.7 fold”.

And the “decrease of protein level of hnRNPs” value (SW620 cells; [4])?
The value was “at least 2 fold”.

And the “decrease of protein level of snRNPs / certain snRNP components” value (SW620 cells; [4])?
The value was 1.8 fold.

What about the “increase of histone H2A.Z” value (SW620 cells; [4]) of the same compound?
The value was 24 fold.

What about the “increase of the level of RNA helicases” value (SW620 cells; [4]) of the same compound?
The value was no less than 1.9 fold.

What about the “increase of the level of certain snRNP components” value (SW620 cells; [4]) of the same compound?
Its value is no less than 3 fold.

What about the “increase of the level of transcription regulators/co-factors” value (SW620 cells; [4]) of the same compound?
Its value is no less than 2 fold.

For `C=CC(=O)Nc1cc2c(Nc3ccc(C(C)C)cc3)ncnc2cc1NC(=O)CCl` [B1F], which “viability of the cells” value [1] is on record?
Its value is “reduce the viability of the cells”.

Which “viability of the cells” value [1] does the source give for `C=CC(=O)Nc1cc2c(Nc3ccc(Br)cc3)ncnc2cc1NC(=O)CCl` [A1F] here?
Its value is “reduce the viability of the cells”.

Which “viability of the cells” value [1] does the source give for `C=CC(=O)Nc1cc2c(Nc3ccc(C(C)(C)C)cc3)ncnc2cc1NC(=O)CCl` [D1F] here?
Its value is “reduce the viability of the cells”.

With “dicarboxylic ester of γ-Tocotrienol [DCE-γT]” as the compound, how does the BRET signal [2] read?
The BRET signal was “amplified FRET signal”.

And the “activation within the EGFR axis (BRET signals)” value (EGFR-Luc and Grb2-GFP)?
Its value is “neither the ester nor the hydrolysis products elicit any unwanted activation”.

And the “decrease of DNA repair factors” value (SW620 cells)?
The value was 2 fold.

What about the “decrease of protein level of histone H3 types” value (SW620 cells) of the same compound?
The value was “at least 6 fold”.

And the “decrease of protein level of snRNPs / certain snRNP components” value (SW620 cells)?
Its value is 2 fold.

What about the “increase of histone H2A.Z” value (SW620 cells) of the same compound?
The value was 23 fold.

And the “increase of histone H3 forms” value (SW620 cells)?
The value was no less than 1.8 fold.

What about the “number of proteins whose expression was elicited” value (SW620 cells) of the same compound?
Its value is 37 proteins and 30 proteins and 29 proteins.

And the protein modulation (SW620 cells)?
Its protein modulation is “statistically significant modulation of key proteins”.

And the “time of peak of fluorescent signal” value ([3]; in vivo biodistribution, uptake as a function of time)?
The value was 30 min.

And the “brain uptake / blood brain barrier passage” value ([3]; mouse brain parenchyma cells, data not shown)?
The value was “able to pass the blood brain barrier”.

For `CC1(C)C(/C=C/C=C/C=C/C=C2\N(CCCCS(=O)(=O)O)c3ccc4ccccc4c3C2(C)C)=[N+](CCCCS(=O)(=O)[O-])c2ccc3ccccc3c21` [free cyanine dye, indocyanine green], which antiproliferative efficacy (LoVo cells) is on record?
The antiproliferative efficacy was “did not exhibit any antiproliferative effects”.
